In patent US20250327028A1, “ENGINEERED PLATELETS AS TARGETED PROTEIN DEGRADERS” (Wisconsin Alumni Research Foundation, priority 2024, published 2025):

Assays:
WT MDA-MB-231 cells = assay: In-gel fluorescence detection of NA-647 internalization in WT MDA-MB-231 cells; assay type: cell-based, human
Protocol: In-gel fluorescence detection: In-gel fluorescence was mainly used to investigate the internalization of NeutrAvidin™_647 in HAC-B-treated cancer cells.
Sample preparation: 4T1 or WT MDA-MB-231 cells were seeded in 6-well culture plates with a density of 5×10^4 cells in each well and cultured for 24 h. If HAI pretreatment was performed, the cells were incubated in the HAI-containing blank medium at different concentrations for 2 h and washed with PBS twice before the following treatments. Then, the cells were treated with free HAC-B or the combinations of various ligands at the indicated concentrations for the predetermined time points. Next, the drug-containing medium was removed, and PBS was used to wash the cells twice, followed by incubating the cells in the blank medium containing NeutrAvidin™ DyLight™ 650 (NA-647, Invitrogen/84607) at 0.5 μM for 1 h. Finally, the cells were washed with PBS and lysed on ice with the RIPA buffer containing PMSF (1 mM) and the phosphatase inhibitor cocktail for 30 min. A s for the 4T1 cells cotreated with NA-647 and HAC-B, the cells after 24-h incubation were treated with the blank medium containing NA-647 at 0.5 μM and HAC-B at various concentrations for 2 h before cell lysis.
In-gel fluorescence imaging: After 30-min lysis, the lysates were centrifuged at 10,000 g for 10 minutes at 4° C., and the corresponding supernatants were collected, followed by quantification of the total proteins in the supernatant through the BCA assay. Afterward, the proteins in the supernatant were mixed with ¼ volume of 5× sample buffer formulated by Tris-HCl (pH 6.8, 312.5 mM), sucrose (25%), SDS (10%), bromophenol blue (0.025%), and dithiothreitol (DTT, 250 mM). After incubation for 1 h at room temperature, equal amounts of proteins from different samples ([…] per lane) were loaded into the 12% Bis-Tris gel. After the proteins were separated, the gels were subjected to fluorescence imaging with the ChemiDoc™ MP imaging system (Bio-Rad).

HSP90 = assay: HAC-B-mediated HSP90 labeling, streptavidin-mediated immunoblot analysis; assay type: cell-based, murine; settings: 4T1 cells, 2 h
Protocol: Identification of HAC-B-mediated HSP90 labeling: Streptavidin-mediated immunoblot analysis: 4T1 cells were seeded in 6-well culture plates with a density of 5×10^4 cells in each well and cultured for 24 h. Following washing with PBS twice, the cells were treated with free HAC-B at the indicated concentrations for 2 h. Then, the cells were washed with PBS and lysed on ice with the RIPA buffer containing PMSF (1 mM) and the phosphatase inhibitor cocktail for 30 min. Next, the lysates were centrifuged at 10,000 g for 10 minutes at 4° C., and the corresponding supernatants were collected, followed by quantification of the total proteins in the supernatant through the BCA assay. Subsequently, the proteins in the supernatant were mixed with ¼ volume of 5× sample buffer formulated by Tris-HCl (pH 6.8, 312.5 mM), sucrose (25%), SDS (10%), bromophenol blue (0.025%), and DTT (250 mM). After incubation for 1 h at room temperature, equal amounts of proteins from different samples ([…]) were loaded into the 10% Bis-Tris gel. The separated proteins were transferred to PVDF membrane before the membranes were blocked with 5% nonfat milk in PBS-T. The PVDF membrane was incubated with streptavidin-HRP at room temperature for 2 h. […] Finally, the bands were treated with ECL western blot substrate and detected by the iBright™ imaging system.

4T1-Luc tumors = assay: Treatment efficacy in post-surgery BALB/c mice with orthotopic 4T1-Luc breast cancer; assay type: in vivo; settings: 2×10^8 platelets i.v. or free HAC 5 mg/kg i.p., every third day for 4 times
Text: Evaluation of treatment efficacy and biosafety in post-surgical 4T1 tumor-bearing mice: Post-surgery BALB/c mice with orthotopic 4T1-Luc-breast cancer were used to evaluate the tumor recurrence, metastasis, and biosafety profiles after iDePLT or eDePLT treatments. The treatment efficacy of iDePLT was also studied in the post-surgery NSG mice with orthotopic patient-derived xenografts (PDX) breast cancer.
Establishment of post-surgery models with BALB/c mice: 1×10^6 4T1-Luc cells were suspended in a PBS containing 50% Matrigel® (Corning®/354234). Female 8-week-old BALB/c mice were anesthetized and injected with 50 μL of the cell suspensions into the fourth mammary gland fat pads. After the tumor volumes reached about 100-200 mm^3, the tumor-bearing mice were anesthetized and placed under the microscope, followed by surgical resection to totally remove the visible tumor tissues. Following wound closure, the post-surgery mice were randomly assigned to different treatment groups.
Evaluation of treatment efficacy and biosafety in post-surgery BALB/c mice: As for the treatments with platelets, the platelets were freshly isolated from the healthy female BALB/c mice and suspended in PBS for intravenous (i.v.) injection after the necessary engineering. The free iHAC and eHAC were intraperitoneally (i.p.) injected after dispersing in the formulation of 10% DMSO, 40% polyethylene glycol 300 (PEG300), 5% Tween TM-80, and 45% saline. From the same day after surgery, the mice were anesthetized and i.p. injected with D-luciferin potassium salt (150 mg/kg) in 100 μL in PBS. The bioluminescence of post-surgery mice in each group was detected by Perkin Elmer IVIS every five days from the day of surgery, and intensity was analyzed by Living Image Software v.4.3.1. […] During the treatment course, the body weight of each post-surgery mouse was monitored daily. […]

| Compound | internalization of NA-647 after optimized pretreatment (WT MDA-MB-231 cells; HAC-B pretreatment 5 μM, 4 h) | internalization of extracellular NA-647 (WT MDA-MB-231 cells; WT MDA-MB-231 cells, HAC-B pretreatment, then NA-647 0.5 μM 1 h) | concentration that labels HSP90 with higher efficiency (HSP90) | biotin labeling of HSP90 (detected by HRP-streptavidin) (HSP90; various concentrations) | lung metastasis (bioluminescence) (4T1-Luc tumors) | tumor recurrence at the surgical site (bioluminescence) (4T1-Luc tumors) |
| --- | --- | --- | --- | --- | --- | --- |
| N#CCN(C(=O)CCCC[C@@H]1SC[C@@H]2NC(=O)N[C@@H]21)S(=O)(=O)c1ccc(C(=O)NCCCn2c(Sc3cc4c(cc3I)OCO4)nc3c(N)ncnc32)cc1 [HAC-B, N-(3-(6-amino-8-((6-iodobenzo[d][1,3]dioxol-5-yl)thio)-9H-purin-9-yl)propyl)-4-(N-(cyanomethyl)-N-(5-((3aS,4S,6aR)-2-oxohexahydro-1H-thieno[3,4-d]imidazol-4-yl)pentanoyl)sulfamoyl)benzamide] | substantially internalize NA-647 | enhance the internalization of extracellular NA-647 in a time and concentration-dependent manner | over 0.8 μM | modified HSP90 within 2 h in a concentration-dependent manner |  |  |
| Cc1sc2c(c1C)C(c1ccc(Cl)cc1)=N[C@@H](CC(=O)NCc1cn(CCCC(=O)N(CC#N)S(=O)(=O)c3ccc(C(=O)NCCCn4c(Sc5cc6c(cc5I)OCO6)nc5c(N)ncnc54)cc3)nn1)c1nnc(C)n1-2 [iHAC, (S)—N-(3-(6-amino-8-((6-iodobenzo[d][1,3]dioxol-5-yl)thio)-9H-purin-9-yl)propyl)-4-(N-(4-(4-((2-(4-(4-chlorophenyl)-2,3,9-trimethyl-6H-thieno[3,2-f][1,2,4]triazolo[4,3-a][1,4]diazepin-6-yl)acetamido)methyl)-1H-1,2,3-triazol-1-yl)butanoyl)-N-(cyanomethyl)sulfamoyl)benzamide] |  |  |  |  | started to exhibit obvious lung metastasis from day 15 after surgery | showed some anti-relapse effect during the dosing time, but the mice finally showed substantially recurrent tumors on day 20 |
